Laboratory results reported in ChEMBL document CHEMBL1137315, “7-Aroyl-aminoindoline-1-sulfonamides as a novel class of potent antitubulin agents” (J Med Chem, 2006).

What was measured:
[1] = tested on: NCI-H460; test: Cytotoxicity against human H460 cell line by methylene blue dye assay; format: functional, cell-based
[2] = tested on: TSGH 9201; test: Cytotoxicity against human TSGH cell line by methylene blue dye assay; format: functional, cell-based
[3] = tested on: HT-29; test: Cytotoxicity against human HT29 cell line by methylene blue dye assay; format: functional, cell-based
[4] = target: Tubulin; test: Inhibition of tubulin polymerization; format: functional, Homo sapiens
[5] = tested on: KB; test: Cytotoxicity against human KB cell line by methylene blue dye assay; format: functional, cell-based
[6] = tested on: MKN-45; test: Cytotoxicity against human MKN45 cell line by methylene blue dye assay; format: functional, cell-based
[7] = tested on: KB; test: Cytotoxicity against KB-VIN 10 cell line by methylene blue dye assay; format: functional, cell-based; settings: Homo sapiens
[8] = target: T1, Tubulin (Homo sapiens) (UniProt P68371+Q9H4B7+P0DPH7+P68366+Q13509+Q71U36+P04350+Q3ZCM7+P07437+P68363+Q9BQE3+Q6PEY2+Q13885+Q9BVA1+Q9BUF5); test: Inhibition of [3H]colchicine binding to tubulin at 1 uM; format: protein-complex assay
[9] = target: T1, Tubulin (Homo sapiens); test: Inhibition of [3H]colchicine binding to tubulin at 5 uM; format: protein-complex assay

IC50 [4] [nM] | inhibition [8] [%] | inhibition [9] [%] | SMILES | IC50 [1] [nM] | IC50 [2] [nM] | IC50 [3] [nM] | IC50 [5] [nM] | IC50 [6] [nM] | IC50 [7] [nM]
> 5000 |  |  | COc1ccc(S(=O)(=O)N2CCc3cccc(NCc4ccccc4)c32)cc1 | > 10000 | > 10000 | > 10000 | > 10000 | > 10000 | > 10000
1900 | 57 | 86 | COc1ccc(S(=O)(=O)N2CCc3cccc(NC(C)=O)c32)cc1 | 75 | 103 | 51 | 89 | 61 | 90
 |  |  | COc1ccc(S(=O)(=O)N2CCc3cccc(NC(=O)c4ccccc4)c32)cc1 | 257 | 201 | 192 | 297 | 250 | 180
 |  |  | COc1ccc(C(=O)Nc2cccc3c2N(S(=O)(=O)c2ccc(OC)cc2)CC3)cc1 |  |  |  | 2600 | 1600 | 
 |  |  | COc1cc2c(c(OC)c1OC)-c1ccc(OC)c(=O)cc1[C@@H](NC(C)=O)CC2 [COLCHICINE] |  |  |  | 13.3 | 15 | 117
 |  |  | COc1ccc(S(=O)(=O)N2CCc3cccc(NC(=O)N(C)c4ccccc4)c32)cc1 |  |  |  | > 10000 | > 10000 | 
 |  |  | COc1ccc(S(=O)(=O)N2CCc3cccc(NS(=O)(=O)c4ccccc4)c32)cc1 |  |  |  | 650 | 562 | 
 |  |  | COc1ccc(S(=O)(=O)N2CCc3cc(Br)cc(NC(=O)c4ccncc4)c32)cc1 |  |  |  | 91 | 86 | 
1100 | 78 | 96 | COc1ccc(S(=O)(=O)N2CCc3cccc(NC(=O)c4ccncc4)c32)cc1 | 9.4 | 10.8 | 8.6 | 9.6 | 8.8 | 8.9
1700 | 75 | 94 | COc1ccc(S(=O)(=O)N2CCc3cccc(NC(=O)c4cccs4)c32)cc1 | 49 | 54 | 37 | 47 | 31 | 43
1200 | 74 | 95 | COc1ccc(S(=O)(=O)N2CCc3cccc(NC(=O)c4ccco4)c32)cc1 | 9.8 | 11.1 | 9.5 | 9.6 | 10.7 | 9.2
1500 | 65 | 93 | COc1ccc(S(=O)(=O)N2CCc3cccc(NC(=O)c4ccc(F)cc4)c32)cc1 | 95 | 100 | 55 | 93 | 45 | 85
 |  |  | COc1ccc(S(=O)(=O)N2CCc3cccc(NC(=O)c4ccc(C#N)cc4)c32)cc1 |  |  |  | 105 | 89 | 
 |  |  | COc1ccc(S(=O)(=O)N2CCc3cccc(NC(=O)C(C)(C)C)c32)cc1 |  |  |  | 359 | 289 | 
 |  |  | COc1ccc(S(=O)(=O)N2CCc3cccc(NC(=O)Oc4ccccc4)c32)cc1 |  |  |  | > 10000 | > 10000 | 
 |  |  | COC(=O)c1ccc(C(=O)Nc2cccc3c2N(S(=O)(=O)c2ccc(OC)cc2)CC3)cc1 |  |  |  | 376 | 312 | 
 |  |  | COc1ccc(S(=O)(=O)N2CCc3cccc(NS(=O)(=O)c4ccc([N+](=O)[O-])cc4)c32)cc1 |  |  |  | 1100 | 933 | 
 |  |  | COc1ccc(S(=O)(=O)N2CCc3cccc(N)c32)cc1 |  |  |  | 2800 | 1200 | 
 |  |  | COc1ccc(S(=O)(=O)N2CCc3cccc(NS(=O)(=O)c4ccc(F)cc4)c32)cc1 |  |  |  | 1200 | 890 | 
1900 | 62 | 91 | COc1ccc(S(=O)(=O)N2CCc3cccc(NC(=O)c4ccc([N+](=O)[O-])cc4)c32)cc1 | 122 | 116 | 65 | 102 | 95 | 95
 |  |  | COc1ccc(S(=O)(=O)N2CCc3cc(Br)cc(NC(=O)c4ccco4)c32)cc1 |  |  |  | 89 | 78 | 
